# Measurements taken from the supplement of paper PMC10307832.
# Compound: Cc1ccc2nc(NCCN)c3ncc(C)n3c2c1 + C[C@]1(O)C[C@@H](c2nc(-c3ccc4ccc(-c5ccccc5)nc4c3)c3c(N)nccn32)C1 [Linsitinib] (partner 1 µM)
# Experiment: relative viability (nuclei count vs DMSO), 5 days (fraction); higher = more cells survive
# Settings: first compound 0.04 µM
# How it was run: (§1)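 Relative viability equals treated-well nuclei counts divided by vehicle-well nuclei counts. Counts came from 4× images of lung cancer cell lines grown in 1536-well plates for 5 days after pin-tool dosing on the day after seeding. Dosing used one drug alone or a fixed anchor-drug dose plus five library-drug doses (not always all listed) in √10 steps, and values are medians of duplicate plates.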
row,Cell Line,relative viability
1,NCI-H1437,0.991
2,NCI-H1755,0.989
3,NCI-H2023,0.73
4,HCC-15,0.886
5,PC-14,0.962
6,EKVX,1.04
7,LC-2-ad,0.851
8,NCI-H1563,1.31
9,NCI-H1975,0.972
10,RERF-LC-KJ,0.84
11,ABC-1,0.95
12,NCI-H1944,1.06
13,NCI-H650,0.852
14,PC-3 [JPC-3],0.962

# Same assay, conditions: first compound 0.1265 µM
row,Cell Line,relative viability
1,NCI-H1437,0.932
2,NCI-H1755,1
3,NCI-H2023,0.606
4,HCC-15,0.833
5,PC-14,0.957
6,EKVX,0.972
7,LC-2-ad,0.871
8,NCI-H1563,1.02
9,NCI-H1975,0.93
10,RERF-LC-KJ,0.895
11,ABC-1,0.806
12,NCI-H1944,1.3
13,NCI-H650,0.828
14,PC-3 [JPC-3],0.941

# Same assay, conditions: first compound 0.4 µM
row,Cell Line,relative viability
1,NCI-H1437,1.03
2,NCI-H1755,0.934
3,NCI-H2023,0.658
4,HCC-15,0.855
5,PC-14,0.947
6,EKVX,0.962
7,LC-2-ad,0.891
8,NCI-H1563,1.1
9,NCI-H1975,0.91
10,RERF-LC-KJ,0.863
11,ABC-1,0.812
12,NCI-H1944,1.21
13,NCI-H650,0.994
14,PC-3 [JPC-3],0.924

# Same assay, conditions: first compound 1.265 µM
row,Cell Line,relative viability
1,NCI-H1437,0.936
2,NCI-H1755,1.07
3,NCI-H2023,0.756
4,HCC-15,0.805
5,PC-14,0.964
6,EKVX,0.865
7,LC-2-ad,0.864
8,NCI-H1563,1.39
9,NCI-H1975,0.897
10,RERF-LC-KJ,0.795
11,ABC-1,0.818
12,NCI-H1944,1.23
13,NCI-H650,0.911
14,PC-3 [JPC-3],0.948

# Same assay, conditions: first compound 4 µM
row,Cell Line,relative viability
1,NCI-H1437,0.821
2,NCI-H1755,0.946
3,NCI-H2023,0.577
4,HCC-15,0.905
5,PC-14,0.9
6,EKVX,0.805
7,LC-2-ad,0.806
8,NCI-H1563,1.21
9,NCI-H1975,0.893
10,RERF-LC-KJ,0.73
11,ABC-1,0.594
12,NCI-H1944,1.19
13,NCI-H650,0.69
14,PC-3 [JPC-3],0.947

# Compound: Cc1ccc2nc(NCCN)c3ncc(C)n3c2c1 + C[C@@H](Oc1cc(-c2cnn(C3CCNCC3)c2)cnc1N)c1c(Cl)ccc(F)c1Cl [Crizotinib] (partner 1 µM)
# Experiment: as above
# Settings: first compound 0.04 µM
# How it was run: as §1
row,Cell Line,relative viability
1,NCI-H1437,0.96
2,NCI-H1755,0.94
3,NCI-H2023,0.702
4,HCC-15,0.791
5,PC-14,1.08
6,EKVX,0.921
7,LC-2-ad,0.467
8,NCI-H1563,0.865
9,NCI-H1975,1.05
10,RERF-LC-KJ,0.829
11,ABC-1,1.09
12,NCI-H1944,1.05
13,NCI-H650,0.855
14,PC-3 [JPC-3],0.973

# Same assay, conditions: first compound 0.1265 µM
row,Cell Line,relative viability
1,NCI-H1437,0.968
2,NCI-H1755,0.891
3,NCI-H2023,0.652
4,HCC-15,0.8
5,PC-14,0.862
6,EKVX,0.794
7,LC-2-ad,0.448
8,NCI-H1563,0.835
9,NCI-H1975,0.965
10,RERF-LC-KJ,0.791
11,ABC-1,1.04
12,NCI-H1944,1.18
13,NCI-H650,0.608
14,PC-3 [JPC-3],0.992

# Same assay, conditions: first compound 0.4 µM
row,Cell Line,relative viability
1,NCI-H1437,0.965
2,NCI-H1755,0.857
3,NCI-H2023,0.733
4,HCC-15,0.779
5,PC-14,0.864
6,EKVX,1.02
7,LC-2-ad,0.44
8,NCI-H1563,0.906
9,NCI-H1975,0.957
10,RERF-LC-KJ,0.777
11,ABC-1,1.23
12,NCI-H1944,1.09
13,NCI-H650,0.718
14,PC-3 [JPC-3],0.974

# Same assay, conditions: first compound 1.265 µM
row,Cell Line,relative viability
1,NCI-H1437,0.952
2,NCI-H1755,0.935
3,NCI-H2023,0.767
4,HCC-15,0.742
5,PC-14,0.901
6,EKVX,1.05
7,LC-2-ad,0.406
8,NCI-H1563,0.918
9,NCI-H1975,0.771
10,RERF-LC-KJ,0.722
11,ABC-1,0.988
12,NCI-H1944,1.19
13,NCI-H650,0.583
14,PC-3 [JPC-3],0.947

# Same assay, conditions: first compound 4 µM
row,Cell Line,relative viability
1,NCI-H1437,0.915
2,NCI-H1755,0.863
3,NCI-H2023,0.414
4,HCC-15,0.693
5,PC-14,0.892
6,EKVX,0.903
7,LC-2-ad,0.476
8,NCI-H1563,0.88
9,NCI-H1975,0.757
10,RERF-LC-KJ,0.789
11,ABC-1,0.68
12,NCI-H1944,1.09
13,NCI-H650,0.672
14,PC-3 [JPC-3],0.966
